Patent US20240374609A1, “NITROSAMINE IMPURITY, VARENICLINE PHARMACEUTICAL COMPOSITION CAPABLE OF REDUCING GENERATION OF NITROSAMINE IMPURITIES AND PREPARATION AND USE THEREOF” (VIWIT PHARMACEUTICALCO., LTD., priority 2021, published 2024)
Like-named read-outs stand apart in the source and are kept apart here.

Assays:
[1] = system: Salmonella Typhimurium TA102; assay: Ames test, plate incorporation method, TA102; format: cell-based; conditions: positive control
Method: (§1) Salmonella Typhimurium TA97a, TA98, TA100, TA102, and TA1535 from MOLT OX, USA, were purchased from Shanghai Bioplus Biotech. Co., Ltd. The test was carried out using Salmonella typhimurium strains that were identified as meeting the requirements.
(§2) Rat liver S9 from Shanghai Bioplus Biotech. Co., Ltd.
(§3) The experiments were performed using the plate incorporation method.
(§4) Dose selection: The experiments were performed using 5 mg, 2.5 mg, 1.25 mg, 0.625 mg, 0.3125 mg, and 0.15625 mg per dish.
(§5) Test substance preparation: nitrosamine impurity compound P08 was prepared to a solution of 50 mg/ml with dimethyl-sulfoxide, and diluted with dimethyl-sulfoxide to give the solutions of 25 mg/ml, 12.5 mg/ml, 6.25 mg/ml, 3.125 mg/ml, and 1.5625 mg/ml successively.
(§6) 0.1 ml of frozen bacterial solutions TA97a, TA98, TA100, TA102 and TA1535 were inoculated into the 10 ml nutrient broth mediums respectively, and cultured at 37° C. (100/min) for 10 h with shaking (100 times/min). 2.0 ml of top layer medium containing 0.5 mmol/L histidine −0.5 mmol/L biotin was dispensed into test tubes, sterilized by 0.103 MPa for 20 min, and kept in a water bath at 50° C. Then, 0.1 ml of the test substance solution, 0.5 ml of the S9 mixture (when metabolic activation was required) and 0.1 ml of the bacterial solution were added into each tube successively, mixed sufficiently, and poured into the bottom layer agar plates quickly. Then, the plates were turned to distribute even. After being placed horizontally for condensation and solidification, the plates were inverted and incubated in an incubator at 37° C. for 48 h, and the number of reverse mutation colonies per dish was counted. Three parallel plates of each dose were made, containing the spontaneous reverse mutation group, the solvent control group and the positive control group.
(§7) The data were expressed as means±standards deviation (x±s), and SPSS 19.0 was used for calculation of data analysis.
(§8) If the test substance tested by the above test strain is negative both with and without S9, then the test substance is determined to be mutagenic negative.

[2] = system: Salmonella Typhimurium TA1535; format: cell-based; conditions: positive control
Method: as §1, §2, §3, §4, §5, §6, §7, §8

[3] = system: Salmonella Typhimurium TA97a; assay: Ames test, plate incorporation method, TA97a; format: cell-based; conditions: positive control, −S9, 50 μg/dish
Method: (§9) Salmonella Typhimurium TA97a, TA98, TA100, TA102, and TA1535 from MOLT OX, USA, were purchased from Shanghai Bioplus Biotech.
as §2, §3, §4, §6, §7, §8

[4] = system: Salmonella Typhimurium TA98; assay: Ames test, plate incorporation method, TA98; format: cell-based; conditions: positive control, TA98, −S9, 50 μg/dish
Method: as §9, §2, §3, §4, §6, §7, §8

[5] = system: Salmonella Typhimurium TA100; assay: Ames test, plate incorporation method, TA100; format: cell-based; conditions: positive control, TA100, −S9, 1 μl/dish
Method: as §9, §2, §3, §4, §6, §7, §8

[6] = Content of nitrosamine impurity P08 in varenicline tartrate tablets, initial and at high temperature (HPLC Q-Exactive-MS/MS); format: physicochemical
Method: After ultrasound for 5 min, the pH of the dispersion was measured. The content of the nitrosamine impurity P08 in the varenicline tartrate tablets were measured by HPLC Q-Exactive-MS/MS (Vanquish HPLC Q-Exactive-MS/MS).
Wherein, • “API” (Active Pharmaceutical Ingredient) refers to the API of varenicline tartrate. • “Initial” refers to the immediate measurement after the preparation of the varenicline tartrate tablet. • “Measurement at high-temperature” refers to the measurement after keeping at 60° C. of the prepared varenicline tartrate tablet for a period of time (see “Chinese Pharmacopoeia”). • Symbol * refers to the liquid sample after adjusting the pH value, and the liquid sample is tested. • Symbol # refers to the liquid sample after adjusting the pH value which is subjected to a high temperature test, and then the liquid sample is tested.
Methodologically validated HPLC Q-Exactive-MS/MS (Vanquish HPLC Q-Exactive-MS/MS) was used for the qualitative and/or quantitative determination of nitrosamine impurity P08 in varenicline tartrate tablets. The measurement results are shown in Example 4.
Sample solution: 10 varenicline tartrate tablets were placed in a 10 ml volumetric flask, added with 3 mL of purified water and 3 mL of acetonitrile, sonicated for 30s, then diluted with acetonitrile to volume and mixed evenly.
C (ppm)=the concentration (ng/ml) of P08 in the sample solution/the concentration (mg/ml) of varenicline tartrate in the sample solution.

## O=C1c2cccc(O)c2C(=O)c2c(O)cccc21 [1,8-dihydroxyanthraquinone, reference compound]
[1]; TA102, +S9, 50 μg/dish
  number of reverse mutation colonies per dish (x ± s): 921 ± 32

## O=P1(N(CCCl)CCCl)NCCCO1 (stereo not shown) [Cyclophosphamide, cyclophosphamide, reference compound]
[2]; TA1535, +S9, 200 μg/dish
  number of reverse mutation colonies per dish (x ± s): 171 ± 11

## CN(C)c1ccc(N=NS(=O)(=O)[O-])cc1.[Na+] [Dexon, reference compound]
[3]
  number of reverse mutation colonies per dish (x ± s): 1294 ± 64
[4]
  number of reverse mutation colonies per dish (x ± s): 691 ± 43

## COS(C)(=O)=O [Methyl methanesulfonate, methyl methanesulfonate, reference compound]
[5]
  number of reverse mutation colonies per dish (x ± s): 1596 ± 71
[1]; TA102, −S9, 1 μl/dish
  number of reverse mutation colonies per dish (x ± s): 2418 ± 257

## [N-]=[N+]=[N-] [Sodium azide, sodium azide, reference compound]
[2]; TA1535, −S9, 1.5 μg/dish
  number of reverse mutation colonies per dish (x ± s): 570 ± 46

## varenicline tartrate [API]
[6]; API of varenicline tartrate used for blue coating tablets
  P08 in API: 0.511 ppm
[6]; API of varenicline tartrate used for core tablets
  P08 in API: 0.511 ppm
[6]; API of varenicline tartrate used for white coating tablets
  P08 in API: 0.511 ppm
